In publication PMC8473290 (Viruses, 2021):
Peptide text beside a SMILES is read from it.

Columns and labels:
TB40-BAC4 = test: Inhibition of cell-free HCMV infection of HFFs (TB40-BAC4); assay type: cell-based, Human cytomegalovirus
HSV-1 R10.2 = test: Inhibition of cell-free HSV-1 infection of HFFs; assay type: cell-based, herpes simplex virus 1; settings: 1 h preincubation, MOI 1, fixed 6 h p.i.
[1] = test system: recent cell-associated clinical HCMV isolates; test: Cell-associated focal spread of recent clinical HCMV isolates in HFF co-culture; assay type: cell-based, Human cytomegalovirus; settings: 60 µmol/L, added 1 d p.i., fixed 7 d p.i.
HSV-2 R6 = test: Inhibition of cell-free HSV-2 infection of HFFs; assay type: cell-based, herpes simplex virus 2; settings: 1 h preincubation, MOI 1, fixed 6 h p.i.
[2] = test system: Merlin-pAL1502-UL32EGFP-UL100mCherry; test: Single particle analysis of virion transfer with dual fluorescent Merlin; assay type: cell-based, Human cytomegalovirus; settings: 125 µmol/L, added 1 d p.i.
[3] = test system: HCMV strain Merlin-pAL1502; test: Reversibility of inhibition of cell-associated spread after peptide removal; assay type: cell-based, Human cytomegalovirus
[4] = test system: HCMV strain Merlin-pAL1502; test: Cell-associated focal spread of Merlin-pAL1502 in HFFs; assay type: cell-based, Human cytomegalovirus

CC[C@H](C)[C@H](NC(=O)[C@H](Cc1ccc(O)cc1)NC(=O)[C@@H](NC(=O)[C@H](Cc1c[nH]cn1)NC(=O)[C@H](CCCNC(=N)N)NC(=O)CN)[C@@H](C)CC)C(=O)N[C@@H](Cc1ccc(O)cc1)C(=O)N[C@H](C(=O)N1CCC[C@H]1C(=O)N[C@@H](CC(=O)O)C(=O)N1CCC[C@H]1C(=O)N[C@@H](CC(=O)O)C(=O)N[C@H](C(=O)N[C@@H](C)C(=O)N[C@@H](Cc1ccccc1)C(=O)N[C@H](C(=O)N1CCC[C@H]1C(=O)N[C@@H](CC(C)C)C(=O)NCC(=O)N[C@@H](CCSC)C(=O)N[C@H](C(=O)N[C@@H](CC(=O)O)C(=O)N[C@@H](Cc1ccc(O)cc1)C(=O)N[C@@H](CC(C)C)C(=O)N[C@H](C(=O)N[C@H](C(=O)N[C@H](C(=O)N[C@@H](CCC(=O)O)C(=O)N[C@@H](CC(=O)O)C(=O)N[C@@H](CC(=O)O)C(=O)O)C(C)C)[C@@H](C)CC)C(C)C)[C@@H](C)O)C(C)C)C(C)C)C(C)C [GD30] (H-GRHIYIYVPDPDVAFVPLGMTDYLVIVEDD-OH; N-terminus and C-terminus assumed)
Antiviral effect against cell-free virus (TB40-BAC4; 2 h preincubation with virus, MOI 1, fixed next day): effective against cell-free virus | Hill slope of the dose-response curve (TB40-BAC4; cell-free virus, 2 h preincubation, MOI 1): −1.67 | Extent of inhibition of cell-free virus (HSV-1 R10.2): completely | Reduction of focal growth compared with GT40 [1]: to a similar extent but not more than GT40 | Extent of inhibition of cell-free virus (HSV-2 R6): completely | Reduction of the total number of particles transferred ([2]; MOI 0.05, versus DMSO control, 10 frames): 78% | Percentage of naked capsids ([2]; MOI 0.05, untreated control 86%): 7% | Focus size under permanent treatment ([3]; 125 µmol/L from 42 h p.i. until fixation at day 8): almost exclusively single infected cells | Reversibility of the inhibitory effect after peptide removal ([3]; 125 µmol/L from 42 h to 5 d p.i., then 3 d without peptide): completely reversible | Mean focus size after intermittent treatment ([3]; 125 µmol/L from 42 h to 5 d p.i., withdrawn, fixed 8 d p.i., untreated control up to 50): around 15 infected cells per focus | Reduction of focal growth compared with GT40 ([4]; 60 µmol/L, added 1 d p.i., fixed 7 d p.i.): to a similar extent but not more than GT40 | Inhibition of cell-associated spread ([4]; 125 µmol/L, applied 42 h p.i., MOI 0.005): almost completely inhibits
